The source made the active and inactive calls. The calls are words filed in the database; no cut-off is given here.
What was measured:
[1] = biological target: Serine/threonine-protein kinase B-raf (Homo sapiens, UniProt P15056); experiment: Inhibition of BRAF (unknown origin) at 10 uM after 40 mins by scintillation counting analysis
[2] = biological target: Tyrosine-protein kinase Lyn (Homo sapiens, UniProt P07948); experiment: Inhibition of Lyn (unknown origin) at 10 uM after 40 mins by scintillation counting analysis
[3] = biological target: Platelet-derived growth factor receptor alpha (Homo sapiens) (UniProt P16234); experiment: Inhibition of PDGFRalpha (unknown origin) at 10 uM after 40 mins by scintillation counting analysis
Sequence of Platelet-derived growth factor receptor alpha (Homo sapiens) (P16234 whole entry): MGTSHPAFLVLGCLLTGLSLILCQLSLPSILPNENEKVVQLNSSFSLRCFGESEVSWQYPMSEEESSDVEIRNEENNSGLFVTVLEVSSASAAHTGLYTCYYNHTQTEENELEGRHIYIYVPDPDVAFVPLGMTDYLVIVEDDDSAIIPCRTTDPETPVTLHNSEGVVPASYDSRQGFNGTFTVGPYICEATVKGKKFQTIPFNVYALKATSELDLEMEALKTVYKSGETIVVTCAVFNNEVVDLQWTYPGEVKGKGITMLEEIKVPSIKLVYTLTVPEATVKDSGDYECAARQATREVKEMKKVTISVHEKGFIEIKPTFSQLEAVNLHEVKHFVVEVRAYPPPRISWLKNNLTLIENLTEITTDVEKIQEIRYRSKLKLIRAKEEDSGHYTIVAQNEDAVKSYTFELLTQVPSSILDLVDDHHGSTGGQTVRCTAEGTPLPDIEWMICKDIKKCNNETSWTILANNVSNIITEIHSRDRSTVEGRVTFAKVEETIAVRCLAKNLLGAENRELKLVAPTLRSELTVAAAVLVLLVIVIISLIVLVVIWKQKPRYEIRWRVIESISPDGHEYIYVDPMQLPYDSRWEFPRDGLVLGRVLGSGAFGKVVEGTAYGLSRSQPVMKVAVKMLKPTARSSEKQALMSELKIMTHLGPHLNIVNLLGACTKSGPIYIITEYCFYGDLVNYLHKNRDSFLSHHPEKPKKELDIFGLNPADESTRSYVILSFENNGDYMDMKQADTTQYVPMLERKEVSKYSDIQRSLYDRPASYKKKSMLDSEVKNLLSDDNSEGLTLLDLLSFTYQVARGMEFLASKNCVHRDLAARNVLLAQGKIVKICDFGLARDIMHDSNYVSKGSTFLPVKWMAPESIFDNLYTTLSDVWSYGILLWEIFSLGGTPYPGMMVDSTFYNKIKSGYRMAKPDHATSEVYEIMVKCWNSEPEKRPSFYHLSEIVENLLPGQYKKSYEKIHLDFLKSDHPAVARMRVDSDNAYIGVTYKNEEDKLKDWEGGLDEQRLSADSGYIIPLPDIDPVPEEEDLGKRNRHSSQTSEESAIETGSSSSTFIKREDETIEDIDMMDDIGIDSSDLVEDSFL

[4] = biological target: Proto-oncogene tyrosine-protein kinase ROS (Homo sapiens) (UniProt P08922); experiment: Inhibition of ROS1 (unknown origin) at 10 uM after 40 mins by scintillation counting analysis
[5] = biological target: Mitogen-activated protein kinase 3 (Homo sapiens) (UniProt P27361); experiment: Inhibition of ErK1 (unknown origin) at 10 uM after 40 mins by scintillation counting analysis
[6] = biological target: Vascular endothelial growth factor receptor 2 (Homo sapiens) (UniProt P35968); experiment: Inhibition of VEGFR2 (unknown origin) at 10 uM after 40 mins by scintillation counting analysis
Sequence of Vascular endothelial growth factor receptor 2 (Homo sapiens) (P35968 whole entry): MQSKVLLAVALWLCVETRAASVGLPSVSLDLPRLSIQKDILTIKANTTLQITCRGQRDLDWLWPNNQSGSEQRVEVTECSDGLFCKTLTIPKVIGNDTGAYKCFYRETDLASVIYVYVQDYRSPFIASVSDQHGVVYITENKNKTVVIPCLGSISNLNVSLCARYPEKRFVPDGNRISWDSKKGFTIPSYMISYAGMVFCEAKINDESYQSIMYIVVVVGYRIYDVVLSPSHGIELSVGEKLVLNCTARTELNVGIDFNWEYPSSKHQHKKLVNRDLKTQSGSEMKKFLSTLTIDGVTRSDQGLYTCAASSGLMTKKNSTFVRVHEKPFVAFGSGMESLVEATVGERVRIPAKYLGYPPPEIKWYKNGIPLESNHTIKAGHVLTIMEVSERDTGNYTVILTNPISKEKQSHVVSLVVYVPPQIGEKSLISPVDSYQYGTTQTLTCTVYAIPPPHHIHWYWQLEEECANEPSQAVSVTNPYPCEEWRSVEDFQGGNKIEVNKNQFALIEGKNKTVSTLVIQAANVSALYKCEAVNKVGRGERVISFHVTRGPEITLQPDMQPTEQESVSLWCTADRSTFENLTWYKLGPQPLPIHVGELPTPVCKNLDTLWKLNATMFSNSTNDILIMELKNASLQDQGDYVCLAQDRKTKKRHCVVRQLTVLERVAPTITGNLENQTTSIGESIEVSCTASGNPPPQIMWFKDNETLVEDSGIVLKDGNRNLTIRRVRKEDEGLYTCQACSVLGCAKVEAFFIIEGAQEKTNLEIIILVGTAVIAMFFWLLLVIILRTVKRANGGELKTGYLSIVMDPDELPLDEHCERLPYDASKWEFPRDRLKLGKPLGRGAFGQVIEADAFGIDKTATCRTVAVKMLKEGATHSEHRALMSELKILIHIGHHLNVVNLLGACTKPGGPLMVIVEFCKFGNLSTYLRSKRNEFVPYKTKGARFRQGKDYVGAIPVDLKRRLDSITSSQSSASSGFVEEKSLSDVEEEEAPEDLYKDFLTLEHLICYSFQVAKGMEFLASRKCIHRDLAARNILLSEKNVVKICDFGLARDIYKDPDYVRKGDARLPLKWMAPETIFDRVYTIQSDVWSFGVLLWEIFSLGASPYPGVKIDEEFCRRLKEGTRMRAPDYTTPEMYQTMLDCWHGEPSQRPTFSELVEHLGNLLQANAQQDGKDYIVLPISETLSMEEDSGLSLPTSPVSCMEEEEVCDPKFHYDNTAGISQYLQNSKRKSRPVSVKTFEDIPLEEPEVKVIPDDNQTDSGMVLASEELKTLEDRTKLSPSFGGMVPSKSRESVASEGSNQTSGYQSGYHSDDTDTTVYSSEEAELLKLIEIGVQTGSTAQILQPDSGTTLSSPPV

[7] = biological target: Fibroblast growth factor receptor 2 (Homo sapiens) (UniProt P21802); experiment: Inhibition of FGFR2 (unknown origin) at 10 uM after 40 mins by scintillation counting analysis
[8] = biological target: Dual specificity mitogen-activated protein kinase kinase 1 (Homo sapiens) (UniProt Q02750); experiment: Inhibition of MEK1 (unknown origin) at 10 uM after 40 mins by scintillation counting analysis
[9] = biological target: ALK tyrosine kinase receptor (Homo sapiens) (UniProt Q9UM73); experiment: Inhibition of ALK (unknown origin) at 10 uM after 40 mins by scintillation counting analysis
[10] = biological target: Macrophage colony-stimulating factor 1 receptor (Homo sapiens, UniProt P07333); experiment: Inhibition of FMS (unknown origin) at 10 uM after 40 mins by scintillation counting analysis
[11] = biological target: Tyrosine-protein kinase HCK (Homo sapiens) (UniProt P08631); experiment: Inhibition of HCK (unknown origin) at 10 uM after 40 mins by scintillation counting analysis
[12] = biological target: Focal adhesion kinase 1 (Homo sapiens) (UniProt Q05397); experiment: Inhibition of FAK (unknown origin) at 10 uM after 40 mins by scintillation counting analysis
[13] = biological target: Insulin-like growth factor 1 receptor (Homo sapiens) (UniProt P08069); experiment: Inhibition of IGF1R (unknown origin) at 10 uM after 40 mins by scintillation counting analysis
[14] = biological target: Platelet-derived growth factor receptor beta (Homo sapiens) (UniProt P09619); experiment: Inhibition of PDGFRbeta (unknown origin) at 10 uM after 40 mins by scintillation counting analysis
[15] = biological target: Tyrosine-protein kinase SYK (Homo sapiens) (UniProt P43405); experiment: Inhibition of SYK (unknown origin) at 10 uM after 40 mins by scintillation counting analysis
[16] = biological target: Receptor-type tyrosine-protein kinase FLT3 (Homo sapiens) (UniProt P36888); experiment: Inhibition of FLT3 (unknown origin) at 10 uM after 40 mins by scintillation counting analysis
[17] = biological target: Tyrosine-protein kinase JAK1 (Homo sapiens) (UniProt P23458); experiment: Inhibition of JAK1 (unknown origin) at 10 uM after 40 mins by scintillation counting analysis
[18] = biological target: Tyrosine-protein kinase ITK/TSK (Homo sapiens) (UniProt Q08881); experiment: Inhibition of ITK (unknown origin) at 10 uM after 40 mins by scintillation counting analysis
Sequence of Tyrosine-protein kinase ITK/TSK (Homo sapiens) (Q08881 whole entry): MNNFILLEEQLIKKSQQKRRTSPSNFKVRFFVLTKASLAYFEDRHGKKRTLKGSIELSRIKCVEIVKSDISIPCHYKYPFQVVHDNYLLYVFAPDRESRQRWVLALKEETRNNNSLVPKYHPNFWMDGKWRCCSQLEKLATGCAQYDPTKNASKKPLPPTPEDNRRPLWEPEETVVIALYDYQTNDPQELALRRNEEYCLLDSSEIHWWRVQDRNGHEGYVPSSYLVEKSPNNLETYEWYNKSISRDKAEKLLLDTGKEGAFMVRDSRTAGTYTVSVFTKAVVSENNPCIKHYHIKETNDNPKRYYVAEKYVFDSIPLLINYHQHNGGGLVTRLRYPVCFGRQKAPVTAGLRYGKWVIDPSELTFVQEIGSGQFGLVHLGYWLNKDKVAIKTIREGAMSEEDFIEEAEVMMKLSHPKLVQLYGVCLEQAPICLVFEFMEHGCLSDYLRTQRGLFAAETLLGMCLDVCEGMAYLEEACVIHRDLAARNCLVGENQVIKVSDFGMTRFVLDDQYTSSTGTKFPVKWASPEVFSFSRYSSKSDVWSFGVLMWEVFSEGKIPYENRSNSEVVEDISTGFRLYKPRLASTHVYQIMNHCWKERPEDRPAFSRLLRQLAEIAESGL

[19] = biological target: Angiopoietin-1 receptor (Homo sapiens) (UniProt Q02763); experiment: Inhibition of TIE2 (unknown origin) at 10 uM after 40 mins by scintillation counting analysis
[20] = biological target: Aurora kinase A (Homo sapiens) (UniProt O14965); experiment: Inhibition of Aurora A (unknown origin) at 10 uM after 40 mins by scintillation counting analysis
[21] = biological target: Serine/threonine-protein kinase PLK1 (Homo sapiens) (UniProt P53350); experiment: Inhibition of PLK1 (unknown origin) at 10 uM after 40 mins by scintillation counting analysis
[22] = biological target: Fibroblast growth factor receptor 3 (Homo sapiens) (UniProt P22607); experiment: Inhibition of FGFR3 (unknown origin) at 10 uM after 40 mins by scintillation counting analysis
Sequence of Fibroblast growth factor receptor 3 (Homo sapiens) (P22607 23-806 limits assumed): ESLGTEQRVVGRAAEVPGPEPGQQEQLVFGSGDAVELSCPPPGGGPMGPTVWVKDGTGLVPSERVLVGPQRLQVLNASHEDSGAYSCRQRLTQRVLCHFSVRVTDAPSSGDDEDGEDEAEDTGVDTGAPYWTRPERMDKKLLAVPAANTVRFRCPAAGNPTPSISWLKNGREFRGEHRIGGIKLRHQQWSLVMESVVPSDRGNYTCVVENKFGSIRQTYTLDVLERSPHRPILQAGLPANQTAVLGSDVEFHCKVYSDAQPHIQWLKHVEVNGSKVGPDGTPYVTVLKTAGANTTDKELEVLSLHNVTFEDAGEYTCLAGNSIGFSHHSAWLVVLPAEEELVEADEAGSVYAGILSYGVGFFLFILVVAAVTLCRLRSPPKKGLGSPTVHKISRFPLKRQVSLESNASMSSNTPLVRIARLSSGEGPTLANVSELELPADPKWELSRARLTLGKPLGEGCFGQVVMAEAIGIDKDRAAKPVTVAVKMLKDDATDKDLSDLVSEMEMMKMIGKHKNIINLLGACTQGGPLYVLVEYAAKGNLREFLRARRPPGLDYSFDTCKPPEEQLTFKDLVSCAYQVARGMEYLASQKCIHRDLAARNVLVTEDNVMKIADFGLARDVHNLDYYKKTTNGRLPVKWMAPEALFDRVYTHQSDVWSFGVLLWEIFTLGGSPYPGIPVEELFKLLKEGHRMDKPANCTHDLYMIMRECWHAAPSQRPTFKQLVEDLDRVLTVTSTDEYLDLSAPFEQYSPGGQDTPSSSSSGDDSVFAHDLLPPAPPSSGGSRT

[23] = biological target: Vascular endothelial growth factor receptor 1 (Homo sapiens) (UniProt P17948); experiment: Inhibition of FLT1 (unknown origin) at 10 uM after 40 mins by scintillation counting analysis
[24] = biological target: Mitogen-activated protein kinase 8 (Homo sapiens) (UniProt P45983); experiment: Inhibition of JNK1 (unknown origin) at 10 uM after 40 mins by scintillation counting analysis
[25] = biological target: Mitogen-activated protein kinase 10 (Homo sapiens) (UniProt P53779); experiment: Inhibition of JNK3 (unknown origin) at 10 uM after 40 mins by scintillation counting analysis
[26] = organism: Homo sapiens; experiment: Inhibition of Pi3K (unknown origin) at 10 uM after 40 mins by scintillation counting analysis
[27] = biological target: Hepatocyte growth factor receptor (Homo sapiens) (UniProt P08581); experiment: Inhibition of c-MET (unknown origin) at 10 uM after 40 mins by scintillation counting analysis
[28] = biological target: Cyclin-dependent kinase 1/cyclin B (Homo sapiens) (UniProt P06493+P14635+Q8WWL7+O95067); experiment: Inhibition of CDK1/cyclin B (unknown origin) at 10 uM after 40 mins by scintillation counting analysis; format: protein-complex assay
[29] = test system: U-937; experiment: Antiproliferative activity against human U937 cells after 24 hrs by MTT assay; format: functional
[30] = biological target: Mast/stem cell growth factor receptor Kit (Homo sapiens) (UniProt P10721); experiment: Inhibition of c-Kit (unknown origin) at 10 uM after 40 mins by scintillation counting analysis
[31] = biological target: Cyclin-dependent kinase 2/cyclin E (Homo sapiens) (UniProt P24864+P24941+O96020); experiment: Inhibition of CDK2/cyclin E (unknown origin) at 10 uM after 40 mins by scintillation counting analysis; format: protein-complex assay
[32] = biological target: cAMP-dependent protein kinase (PKA) (Homo sapiens) (UniProt P22694+P17612+P22612); experiment: Inhibition of PKA (unknown origin) at 10 uM after 40 mins by scintillation counting analysis; format: protein assay
[33] = biological target: Tyrosine-protein kinase ABL1 (Homo sapiens) (UniProt P00519); experiment: Inhibition of ABL1 (unknown origin) at 10 uM after 40 mins by scintillation counting analysis
Sequence of Tyrosine-protein kinase ABL1 (Homo sapiens) (P00519 whole entry): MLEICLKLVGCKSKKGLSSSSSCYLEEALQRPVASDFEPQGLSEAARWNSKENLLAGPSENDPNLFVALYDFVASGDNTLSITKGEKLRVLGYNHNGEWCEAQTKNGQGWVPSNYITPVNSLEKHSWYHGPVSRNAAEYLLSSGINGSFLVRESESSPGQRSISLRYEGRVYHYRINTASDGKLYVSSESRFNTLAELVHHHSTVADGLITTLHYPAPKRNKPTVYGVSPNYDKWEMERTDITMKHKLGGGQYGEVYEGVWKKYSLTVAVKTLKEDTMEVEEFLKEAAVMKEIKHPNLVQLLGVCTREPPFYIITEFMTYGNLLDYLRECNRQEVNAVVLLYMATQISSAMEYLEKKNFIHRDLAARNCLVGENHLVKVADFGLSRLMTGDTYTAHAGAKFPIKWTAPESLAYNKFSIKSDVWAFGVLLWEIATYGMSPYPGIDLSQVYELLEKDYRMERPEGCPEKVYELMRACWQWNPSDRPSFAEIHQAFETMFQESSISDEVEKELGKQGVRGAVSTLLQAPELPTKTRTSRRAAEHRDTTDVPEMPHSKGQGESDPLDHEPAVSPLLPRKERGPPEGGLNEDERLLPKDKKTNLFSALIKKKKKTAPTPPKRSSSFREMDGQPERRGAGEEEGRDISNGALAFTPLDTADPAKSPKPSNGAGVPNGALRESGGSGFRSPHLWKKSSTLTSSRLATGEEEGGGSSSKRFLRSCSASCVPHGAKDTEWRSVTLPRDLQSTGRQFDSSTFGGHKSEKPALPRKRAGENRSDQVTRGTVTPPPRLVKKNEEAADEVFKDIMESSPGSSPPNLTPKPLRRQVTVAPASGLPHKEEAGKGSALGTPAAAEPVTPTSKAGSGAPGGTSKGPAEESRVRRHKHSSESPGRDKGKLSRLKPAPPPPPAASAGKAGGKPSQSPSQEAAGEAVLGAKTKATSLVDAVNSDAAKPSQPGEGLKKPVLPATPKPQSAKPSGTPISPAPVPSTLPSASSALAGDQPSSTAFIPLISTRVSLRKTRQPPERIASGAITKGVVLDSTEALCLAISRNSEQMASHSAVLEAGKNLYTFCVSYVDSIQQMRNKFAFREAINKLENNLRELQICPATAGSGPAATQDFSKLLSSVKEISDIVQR

[34] = biological target: Macrophage-stimulating protein receptor (Homo sapiens) (UniProt Q04912); experiment: Inhibition of RON (unknown origin) at 10 uM after 40 mins by scintillation counting analysis
[35] = biological target: Tyrosine-protein kinase JAK3 (Homo sapiens) (UniProt P52333); experiment: Inhibition of Jak3 (unknown origin) at 10 uM after 40 mins by scintillation counting analysis
[36] = biological target: RAC-alpha serine/threonine-protein kinase (Homo sapiens) (UniProt P31749); experiment: Inhibition of AKT1 (unknown origin) at 10 uM after 40 mins by scintillation counting analysis

Cc1ccccc1C(=O)Nc1cnoc1C
inhibition [1]: inactive
inhibition [2]: inactive
inhibition [3]: inactive
inhibition [4]: inactive
inhibition [5]: inactive
inhibition [6]: inactive
inhibition [7]: inactive
inhibition [8]: inactive
inhibition [9]: inactive
inhibition [10]: inactive
inhibition [11]: inactive
inhibition [12]: inactive
inhibition [13]: inactive
inhibition [14]: inactive
inhibition [15]: inactive
inhibition [16]: inactive
inhibition [17]: inactive
inhibition [18]: inactive
inhibition [19]: inactive
inhibition [20]: inactive
inhibition [21]: inactive
inhibition [22]: inactive
inhibition [23]: inactive
inhibition [24]: inactive
inhibition [25]: inactive
inhibition [26]: inactive
inhibition [27]: inactive
inhibition [28]: inactive
GI50 [29]: Active
inhibition [30]: inactive
inhibition [31]: inactive
inhibition [32]: inactive
inhibition [33]: inactive
inhibition [34]: inactive
inhibition [35]: inactive
inhibition [36]: inactive

— ChEMBL document CHEMBL3616395, “Discovery of 4-arylamido 3-methyl isoxazole derivatives as novel FMS kinase inhibitors” (Eur J Med Chem, 2015)
